Target: T1, Human BACE (Homo sapiens, UniProt P56817)
T1 construct: Recombinant BACE (extracellular domain, expressed in baculovirus and purified using standard methods); made in house; host or cells: baculovirus expression system (insect cells)
Test: Test 1: Inhibition of Human BACE
Format: biochemical
Conditions: recombinant BACE, fluorescence-quenched peptide substrate, pH 4.5
Method: Test 1: Inhibition of Human BACE
Recombinant BACE (extracellular domain, expressed in baculovirus and purified using standard methods) at 0.1 to 10 nM concentrations is incubated with the test compound at various concentrations for 1 hour at room temperature in 10 to 100 mM acetate buffer, pH 4.5, containing 0.1% CHAPS.

T1 sequence (P56817 46-457 limits assumed): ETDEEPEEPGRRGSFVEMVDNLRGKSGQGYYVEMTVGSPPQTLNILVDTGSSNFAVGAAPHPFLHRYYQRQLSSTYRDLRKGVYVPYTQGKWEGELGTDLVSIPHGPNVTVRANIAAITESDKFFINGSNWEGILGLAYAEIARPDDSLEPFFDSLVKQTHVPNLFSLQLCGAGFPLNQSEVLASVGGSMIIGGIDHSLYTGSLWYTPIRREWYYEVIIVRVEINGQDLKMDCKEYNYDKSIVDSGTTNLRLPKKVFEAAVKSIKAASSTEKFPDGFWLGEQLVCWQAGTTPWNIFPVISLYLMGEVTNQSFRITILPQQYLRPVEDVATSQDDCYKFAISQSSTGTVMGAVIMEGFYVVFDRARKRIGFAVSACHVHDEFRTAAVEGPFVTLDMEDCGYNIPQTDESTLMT

`COc1cc2cc(c1)C(=O)N[C@H]([C@H](O)CNC1(c3cc(C(C)(C)C)ccn3)CC1)C[C@H](C)CCCCCCCN2` [Example 7, (10R,12S)-12-{(R)-2-[1-(4-tert-Butyl-pyrid-2-yl)-cyclopropylamino]-1-hydroxy-ethyl}-17-methoxy-10-methyl-2,13-diaza-bicyclo[13.3.1]nonadeca-1(19),15,17-trien-14-one] was tested, and the IC50 was 40 nM.

Reference: US20090312370A1, “MACROCYCLIC COMPOUNDS USEFUL AS BACE INHIBITORS” (priority 2006, published 2009)
